Experimental data from ChEMBL document CHEMBL2331133, “Inhibitory effect on NO production of triterpenes from the fruiting bodies of Ganoderma lucidum” (Bioorg Med Chem Lett, 2013).
Each block holds one molecule with its values, some of them ahead of it. Active and inactive are the calls of the source. The rule behind the calls is not given here.

Legend:
[1] = tested on: RAW264.7; assay: Cytotoxicity against mouse RAW264.7 cells assessed as cell viability at 50 uM after 24 hrs by MTT assay; type: cell-based; details: for Activity: mouse, raw264.7, 24 h, 50 µM
[2] = tested on: RAW264.7; assay: Cytotoxicity against LPS-stimulated mouse RAW264.7 cells assessed as cell viability at 50 uM after 24 hrs by MTT assay; type: cell-based; details: raw264.7, 24 h
[3] = tested on: RAW264.7; assay: Antiinflammatory activity in mouse RAW264.7 cells assessed as inhibition of LPS-induced nitric oxide production by Griess reaction method; type: functional, cell-based
[4] = tested on: RAW264.7; assay: Inhibition of LPS-induced iNOS expression in mouse RAW264.7 cells treated 30 mins before LPS challenge measured after 18 hrs by immunoblot analysis; type: functional, cell-based
[5] = tested on: RAW264.7; assay: Inhibition of LPS-induced COX-2 expression in mouse RAW264.7 cells at 1 to 30 uM treated 30 mins before LPS challenge measured after 18 hrs by immunoblot analysis; type: functional, cell-based

Structure (SMILES): CC(C)[C@@H](C)/C=C/[C@@H](C)[C@H]1CC[C@H]2C3=CC=C4C[C@@H](O)CC[C@]4(C)[C@H]3CC[C@]12C [ERGOSTEROL]
Activity [1]: Non-toxic | Activity [2]: Non-toxic

Structure (SMILES): COC(=O)C(C)CC(=O)C[C@@H](C)[C@H]1CC(=O)[C@@]2(C)C3=C(C(=O)[C@@H](OC(C)=O)[C@]12C)[C@@]1(C)CC[C@H](O)C(C)(C)[C@@H]1CC3=O (stereo partly specified) [METHYL GANODERATE H]
Activity [1]: Non-toxic | Activity [2]: Non-toxic

Structure (SMILES): COC(=O)CC[C@@H](C)[C@H]1CC(=O)[C@@]2(C)C3=C(C(=O)C[C@]12C)[C@@]1(C)CCC(=O)C(C)(C)[C@@H]1C[C@@H]3O [METHYL LUCIDENATE A]
Activity [1]: Non-toxic | Activity [2]: Non-toxic

Structure (SMILES): CC(C)[C@@H](C)/C=C/[C@@H](C)[C@H]1CC[C@@H]2[C@]1(C)CC[C@H]1[C@]23C=C[C@]2(C[C@@H](O)CC[C@]12C)OO3 [ERGOSTEROL PEROXIDE]
IC50 [3]: 9.4 µM | Activity [1]: Non-toxic | Activity [2]: Non-toxic

IC50 [3]: 4.5 µM
Structure (SMILES): CCCCOC(=O)CC[C@@H](C)[C@H]1CC(=O)[C@@]2(C)C3=C(C(=O)C[C@]12C)[C@@]1(C)CC[C@H](O)C(C)(C)[C@@H]1C[C@@H]3O [BUTYL LUCIDENATE N]
inhibition [4]: Dose-dependent effect | Activity [1]: Non-toxic | Activity [2]: Non-toxic | inhibition [5]: Active

IC50 [3]: 35 µM
Structure (SMILES): CCCCOC(=O)CC[C@@H](C)[C@H]1CC(=O)[C@@]2(C)C3=C(C(=O)[C@@H](OC(C)=O)[C@]12C)[C@@]1(C)CCC(=O)C(C)(C)[C@@H]1CC3=O [BUTYL LUCIDENATE D2]
Activity [1]: Non-toxic | Activity [2]: Non-toxic

IC50 [3]: 9.2 µM
Structure (SMILES): COC(=O)C(C)CC(=O)C[C@@H](C)[C@H]1C[C@H](O)[C@@]2(C)C3=C(C(=O)C[C@]12C)[C@@]1(C)CCC(=O)C(C)(C)[C@@H]1CC3=O (stereo partly specified) [METHYL GANODERATE J]
Activity [1]: Non-toxic | Activity [2]: Non-toxic

IC50 [3]: 7.4 µM
Structure (SMILES): CCCCOC(=O)CC[C@@H](C)[C@H]1CC(=O)[C@@]2(C)C3=C(C(=O)[C@@H](OC(C)=O)[C@]12C)[C@@]1(C)CC[C@H](O)C(C)(C)[C@@H]1C[C@@H]3O [BUTYL LUCIDENATE P]
inhibition [4]: Dose-dependent effect | Activity [1]: Non-toxic | Activity [2]: Non-toxic | inhibition [5]: Active

Structure (SMILES): COC(=O)CC[C@@H](C)[C@H]1CC(=O)[C@@]2(C)C3=C(C(=O)C[C@]12C)[C@@]1(C)CC[C@H](O)C(C)(C)[C@@H]1C[C@@H]3O [METHYL LUCIDENATE N]
Activity [1]: Non-toxic | Activity [2]: Non-toxic

IC50 [3]: 4.3 µM
Structure (SMILES): CCCCOC(=O)CC[C@@H](C)[C@H]1C[C@H](O)[C@@]2(C)C3=C(C(=O)C[C@]12C)[C@@]1(C)CCC(=O)C(C)(C)[C@@H]1C[C@@H]3O [LUCIDENATE Q]
IC50 ([1]; Mus musculus, RAW264.7, 24 h): 14 µM

Structure (SMILES): C[C@H](CC[C@@H](O)C(C)(C)O)[C@H]1CC[C@@]2(C)C3=CC[C@H]4C(C)(C)C(=O)CC[C@]4(C)C3=CC[C@]12C [GANODERMANONDIOL]
Activity [1]: Non-toxic | Activity [2]: Non-toxic

Structure (SMILES): CC(C)[C@@H](C)/C=C/[C@@H](C)[C@H]1CC[C@H]2C3=CC[C@H]4C[C@@H](O)CC[C@]4(C)[C@H]3CC[C@]12C
Activity [1]: Non-toxic | Activity [2]: Non-toxic

IC50 [3]: 6.4 µM
Structure (SMILES): CCCCOC(=O)CC[C@@H](C)[C@H]1CC(=O)[C@@]2(C)C3=C(C(=O)[C@@H](OC(C)=O)[C@]12C)[C@@]1(C)CC[C@H](O)C(C)(C)[C@@H]1CC3=O [BUTYL LUCIDENATE E2]
inhibition [4]: Dose-dependent effect | Activity [1]: Non-toxic | Activity [2]: Non-toxic | inhibition [5]: Active

Structure (SMILES): C[C@H](CCC=C(CO)CO)[C@H]1CC[C@@]2(C)C3=CC[C@H]4C(C)(C)C(=O)CC[C@]4(C)C3=CC[C@]12C [GANODERIOL F]
IC50 [3]: 36 µM | Activity [1]: Non-toxic | Activity [2]: Non-toxic
